Tests used:
Experiment in all cases: relative viability (nuclei count vs DMSO), 5 days (fraction); higher = more cells survive
Metformin = compound: CN(C)C(=N)NC(=N)N [Metformin]
Procedure, shortened: (§1)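 Only plates meeting two conditions passed: control CV below 25% and at least one doubling. Lung cancer cell lines, kept overnight at 37 °C in 1536-well plates, were pinned with five library-drug doses (not always all listed) √10 apart on vehicle-anchored plates and grown 5 days without medium change. A one-step fix, permeabilisation and Hoechst stain preceded 4× imaging and MetaXpress nuclear counting. Viability equals treated-well nuclei divided by vehicle-well nuclei, as the median over plates.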

Apatinib = compound: N#CC1(c2ccc(NC(=O)c3cccnc3NCc3ccncc3)cc2)CCCC1 [Apatinib]
Procedure, shortened: as §1

Apatinib + Pemetrexed = compound: N#CC1(c2ccc(NC(=O)c3cccnc3NCc3ccncc3)cc2)CCCC1 [Apatinib] + Nc1nc2[nH]cc(CCc3ccc(C(=O)N[C@@H](CCC(=O)O)C(=O)O)cc3)c2c(=O)[nH]1 [Pemetrexed] (partner 0.2 µM)
Procedure, shortened: (§2)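 Nuclei were stained with Hoechst during a one-step fixation (final 0.05% Triton X-100, 1% formaldehyde, 1 ug/ml Hoechst) carried out 5 days after dosing, then counted on 4× images. The cells, lung cancer lines in 1536-well plates, had been dosed by pin tool the day after seeding with one drug alone or a fixed anchor-drug dose plus five library-drug doses (not always all listed) in √10 steps. Relative viability is the nuclei count in treated wells divided by that in vehicle wells, and each value is the median of duplicate plates.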

Metformin + Alpelisib = compound: CN(C)C(=N)NC(=N)N [Metformin] + Cc1nc(NC(=O)N2CCC[C@H]2C(N)=O)sc1-c1ccnc(C(C)(C)C(F)(F)F)c1 [Alpelisib] (partner 2 µM)
Procedure, shortened: as §2

Cell Line | relative viability (Metformin; 31.62 µM) | relative viability (Metformin; 100 µM) | relative viability (Metformin; 316.23 µM) | relative viability (Metformin; 1000 µM) | relative viability (Apatinib; 0.08 µM) | relative viability (Apatinib; 0.253 µM) | relative viability (Apatinib; 0.8 µM) | relative viability (Apatinib; 2.53 µM) | relative viability (Apatinib; 8 µM) | relative viability (Apatinib + Pemetrexed; first compound 0.08 µM) | relative viability (Apatinib + Pemetrexed; first compound 0.253 µM) | relative viability (Apatinib + Pemetrexed; first compound 0.8 µM) | relative viability (Apatinib + Pemetrexed; first compound 2.53 µM) | relative viability (Apatinib + Pemetrexed; first compound 8 µM) | relative viability (Metformin + Alpelisib; first compound 10 µM) | relative viability (Metformin + Alpelisib; first compound 100 µM) | relative viability (Metformin + Alpelisib; first compound 1000 µM) | relative viability (Metformin + Alpelisib; first compound 31.62 µM) | relative viability (Metformin + Alpelisib; first compound 316.23 µM) | relative viability (Metformin; 10 µM)
NCI-H441 | 0.761 | 0.985 | 0.667 | 0.944 | 1.08 | 1.05 | 0.837 | 0.864 | 0.743 | 0.302 | 0.274 | 0.261 | 0.205 | 0.192 | 0.566 | 0.765 | 0.572 | – | – | –
NCI-H460 | 1.01 | 1 | 0.976 | 1.07 | 0.976 | 0.99 | 0.963 | 0.925 | 0.93 | 0.0617 | 0.0695 | 0.0575 | 0.0757 | 0.0845 | – | 0.534 | 0.471 | 0.471 | 0.502 | –
NCI-H520 | 0.928 | 1.18 | 0.889 | 1.03 | 1.11 | 0.945 | 1.01 | 0.813 | 0.81 | 0.668 | 0.678 | 0.736 | 0.552 | 0.322 | 0.764 | 0.948 | 0.86 | 0.855 | 0.665 | 1.08
NCI-H596 | 1.14 | 1.02 | 1.06 | 1.09 | 0.939 | 1.03 | 0.94 | 0.911 | 0.882 | 0.541 | 0.539 | 0.494 | 0.405 | 0.442 | 0.627 | 0.655 | 0.577 | 0.652 | 0.547 | 1.17
NCI-H647 | 1.05 | 1.05 | 0.813 | 0.939 | 1.05 | 1.07 | 0.993 | 0.837 | 0.852 | 0.176 | 0.172 | 0.165 | 0.139 | 0.127 | 1.07 | 1.08 | 1.21 | 1.05 | 1.15 | 0.978
NCI-H650 | 1.1 | 0.816 | 0.953 | 1.07 | 0.979 | 0.927 | 1 | 0.745 | 0.763 | 1.02 | 0.924 | 0.89 | 0.799 | 0.597 | 1.22 | 1.33 | 1.37 | 1.29 | 1.23 | 1.02
NCI-H661 | 0.964 | 0.911 | 0.875 | 0.893 | 0.973 | 0.908 | 0.973 | 0.929 | 0.948 | 0.933 | 0.853 | 0.911 | 0.917 | 0.892 | 0.745 | 0.711 | 0.774 | 0.404 | 0.757 | 0.801
NCI-H838 | 1.07 | 1.01 | 0.987 | 1.04 | 1.08 | 1.06 | 0.97 | 0.936 | 0.941 | 0.259 | 0.291 | 0.228 | 0.221 | 0.207 | 1.04 | 0.969 | 1.02 | 0.969 | 0.988 | 1.05
